Like-named read-outs stand apart in the source and are kept apart here.
What was measured:
[1] = system: membrane potential; settings: literature values, cited from earlier work; for Approx ΔF/F per 100 mV: ΔR/R where comment says ratiometric
[2] = Schiff base pKa and fluorescence of GPR / PROPS; type: physicochemical

| Molecule | Approx response time [1] [ms] | Approx ΔF/F per 100 mV [1] [%] | pKa of the Schiff Base [2] | pKa of the Schiff Base ([2]; listed as green proteorhodopsin) |
| --- | --- | --- | --- | --- |
| CCCCN(CCCC)c1ccc(/C=C/C=C/C=C/c2cc[n+](CCCCS(=O)(=O)[O-])cc2)cc1 [RH237] | <1 | 11 |  |  |
| CCCCCN(CCCCC)c1ccc(/C=C/C=C/c2cc[n+](CCCCS(=O)(=O)[O-])cc2)cc1 [RH421] | <1 | 21 |  |  |
| CCCCN(CCCC)c1ccc2cc(/C=C/c3cc[n+](CCCS(=O)(=O)[O-])cc3)ccc2c1 [di-4-ANEPPS] | <1 | 8 |  |  |
| CCCCCCCCN(CCCCCCCC)c1ccc2cc(/C=C/c3cc[n+](CCCS(=O)(=O)[O-])cc3)ccc2c1 [di-8-ANEPPS] | <1 | 10 |  |  |
| Flash | 2.8 to 85 | 5.1 |  |  |
| GPR: Green-absorbing proteorhodopsin, light-driven proton pump found in marine bacteria (protein, /note=“Description of Unknown Green-absorbing proteorhodopsin polypeptide from an uncultured marine bacterium”) TMGKLLLILGSVIALPTFAAGGGDLDASDYTGVSFWLVTAALLASTVFFFVERDRVSAKWKTSLTVSGLVTGIAFWHYMYMRGVWIETGDSPTVFRYIDWLLTVPLLICEFYLILAAATNVAAGLFKKLLVGSLVMLVFGYMGEAGIMNAWPAFIIGCLAWVYMIYELYAGEGKSACNTASPSVQSAYNTMMAIIVFGWAIYPVGYFTGYLMGDGGSALNLNLIYNLADFVNKILFGLIIWNVAVKESSNA |  |  | ~12 | > 12 |
